# Reference: patent US11464751B2, “Use of fluoroethylnormemantine for the prevention and treatment of anxiety” (REST THERAPEUTICS, priority 2017, dated 2022)
# Columns and labels:
# naive rats (Wistar) [1] = assay: Open-field test (locomotor activity and anxiety); type: in vivo, rat; conditions: for drowsiness effect / overall activity level of the animals: open field over 2 hours, FENM even at high doses, memantine 10 mg/kg
# Procedure: (§1) Thus, to test state anxiety, several animal models are commonly used and have been validated by numerous studies: • open field test: This consists of forcibly exposing the animal (rat or mouse) to a new environment and observing its behavior. […] Locomotor activity and behavior are then assessed by recording the number of crossings of the grid lines, the frequency of retreats, the number of entries and the time spent in the central squares. This animal model is considered a good model of “normal” anxiety when adapting to a new environment. It has good predictability of human response to treatment (L. Prut, European Journal of Pharmacology 463 (2003) 3-33). The open-field test is also useful, when it is prolonged (behavioral recording time over 2 hours), as it allows monitoring the motor activity of the animals and thus their state of wakefulness, whereas measurements at short times give information on anxiety. • the light-dark box test: another animal model of anxiety is based on the aversive properties of an open-field space and on the comparison of exploratory activities in a lit compartment and in a dark compartment under the influence of anxiolytic substances (M Bourin, European Journal of Pharmacology 463 (2003) 55-65). This paradigm is based on rodents' innate aversion to bright places and on rodents' spontaneous exploratory behavior in response to stressful environments (new environment or light). The test device is divided into two compartments, one is small, dark and safe, the second is large, bright and stressful. This paradigm allows the prediction of anxiolytic or anxiogenic drug-like activities in mice. Passages between each compartment are a cue of exploration activity, while the time spent in each compartment reflects aversion. Anxiolytics, effective in humans, classic (benzodiazepines) as well as more recent anxiolytic compounds (serotonergic drugs or drugs acting on neuropeptide receptors) can be detected by this animal model which has the advantage of being simple and quick to use. • The open-field test with light gradient: the two models described above can be judiciously coupled in order to check the anxiolytic potential of a molecule, by eliminating the “burrow” effect induced by the presence of the dark compartment.
# (§2) In the following examples, the effects of memantine, propranolol and fluoroethylnormemantine (FENM, the subject of the present invention) are studied in naive rats (Wistar) subjected to various tests related to depression or anxiety and then compared.
# (§3) The test substances are administered to rats intraperitoneally in a volume of 5 ml/kg, 30 minutes before the behavioral tests are performed.
# (§4) The injected solutions contain either of the molecules in the form of one of their salts, a hydrochloride (memantine·HCl and FENM·HCl) for the nitrogen derivatives and as such for propranolol, at the concentrations indicated below in a mixture of 95% (NaCl 0.9% ww in water)/5% ethanol. In each experiment, the dose per kilogram is referenced.
# In this way, the animals are given a constant volume of solution (to the nearest difference in weight) equal to 5 ml/kg, or 1.5 ml for a 300 g rat.
# (§5) For each paradigm, and each solution tested, 12 rats are subjected to injection and behavioral testing. The control solution is a saline solution.
# • Open-field test: The locomotor activity of the animals and the “normal” anxiety associated with the discovery of an unknown environment are measured in an open field using a video monitoring system for 2 hours, 30 minutes after the injection of the solutions to be tested. The recorded data include, with a reading every 5 minutes, the time spent in the central squares, vertical activity, and the number of displacements.
# naive rats (Wistar) [2] = assay: Pre-pulse inhibition (PPI) test, sensory filtering; type: in vivo, rat; conditions: for Percentage of pre-pulse inhibition, Average: average over first pulse intensities; for effect on PPI (schizophrenia-inducing effect): memantine 10 mg/kg (p<0.01), FENM even at high dose (20 mg/kg)
# From the text: • Pre-pulse inhibition (PPI) test: One of the major problems of treatments targeting the central nervous system remains the achievement of the desired effect without the appearance of crippling psychological side effects, even exceeding the therapeutic benefit of the treatment. These effects are often significant (the rebound effect of benzodiazepines) or even paradoxical (the anxiety-producing effect of short-term serotonin reuptake inhibitors). In particular, they can induce a destabilization of sensory filtering and generate symptoms similar to schizophrenia.
# (§6) Pre-impulse inhibition testing is based on the brain's ability to adapt to a moderate-intensity stimulus in order to limit the effect of the same high-intensity stimulus. In this test, the animals are placed in a soundproof cage and subjected either to a sound pulse of 120 decibels (dB) or to a sequence of 2 pulses spaced about 100 milliseconds apart, the second pulse being of fixed intensity of 120 dB and the first of variable intensity between 70 and 85 dB).
# In animals with psychotic disorders of a schizophrenic nature, this inhibition is more or less eliminated.
# as §2, §3, §4
# as §6, with “the animals (12 per group) are placed” for “the animals are placed”, “being of a fixed intensity” for “being of fixed intensity”
# naive rats (Wistar) [3] = assay: Open-field test with light gradient; type: in vivo, rat
# Procedure: as §1, §2, §3, §4, §5
# In this example the light-dark box test was modified by eliminating the compartmentalization of the box and using a high-intensity light gradient (600 lux). As it is based on rodents' innate aversion to light, the increase in time spent in the area closest to the light source is therefore considered to reflect a lower level of anxiety.
# The animals are exposed to a 12-minute sequence, broken down into three parts, 4 minutes in darkness (ambient light of 5 lux), 4 minutes in the presence of the light gradient and 4 minutes again in darkness. Displacements are recorded in the same way as for the open-field test. The field of view is divided into 4 zones numbered from 1 to 4 according to the increasing distance from the light source.
# NMDA receptor = assay: Affinity with the NMDA receptor; type: binding; conditions: compared with memantine
# [4] = 10 mg/kg i.p., 30 min before test, 0-5 min
# [5] = 10 mg/kg i.p., first pulse 72 dB
# [6] = 10 mg/kg i.p., first pulse 76 dB
# [7] = 10 mg/kg i.p., first pulse 80 dB
# [8] = 10 mg/kg i.p., first pulse 84 dB
smiles,measurement,setting,value
"CC12CC3CC(C)(C1)CC(N)(C3)C2 [Memantine, memantine]",Mean time spent in the central squares per time interval,naive rats (Wistar) [1]; [4],90.4 s
same,Vertical activity,"naive rats (Wistar) [1]; 10 mg/kg i.p., 0-5 min",11.33
same,Mean time spent in the central squares per time interval,"naive rats (Wistar) [1]; 10 mg/kg i.p., 0-10 min",136.8 s
same,Vertical activity,"naive rats (Wistar) [1]; 10 mg/kg i.p., 0-10 min",16.00
same,Mean time spent in the central squares per time interval,"naive rats (Wistar) [1]; 10 mg/kg i.p., 0-120 min",1874.8 s
same,Number of displacements,"naive rats (Wistar) [1]; 10 mg/kg i.p., 0-120 min",750
same,Vertical activity,"naive rats (Wistar) [1]; 10 mg/kg i.p., 0-120 min",60.08
same,Mean time spent in the central squares per time interval,"naive rats (Wistar) [1]; 10 mg/kg i.p., 5-10 min",46.3 s
same,Vertical activity,"naive rats (Wistar) [1]; 10 mg/kg i.p., 5-10 min",4.67
same,drowsiness effect / overall activity level of the animals,naive rats (Wistar) [1],decreases the overall activity level
same,"Percentage of pre-pulse inhibition, Average",naive rats (Wistar) [2]; 10 mg/kg i.p.,31%
same,Percentage of pre-pulse inhibition as a function of the intensity of the first pulse,naive rats (Wistar) [2]; [5],19%
same,Percentage of pre-pulse inhibition as a function of the intensity of the first pulse,naive rats (Wistar) [2]; [6],24%
same,Percentage of pre-pulse inhibition as a function of the intensity of the first pulse,naive rats (Wistar) [2]; [7],36%
same,Percentage of pre-pulse inhibition as a function of the intensity of the first pulse,naive rats (Wistar) [2]; [8],44%
same,effect on PPI (schizophrenia-inducing effect),naive rats (Wistar) [2],induces an inhibition of the PPI effect
NC12CC3CC(C1)CC(CCF)(C3)C2,Mean time spent in the central squares per time interval,"naive rats (Wistar) [1]; 5 mg/kg i.p., 30 min before test, 0-5 min",128.8 s
same,Vertical activity,"naive rats (Wistar) [1]; 5 mg/kg i.p., 0-5 min",40.67
same,Mean time spent in the central squares per time interval,"naive rats (Wistar) [1]; 5 mg/kg i.p., 0-10 min",216.8 s
same,Vertical activity,"naive rats (Wistar) [1]; 5 mg/kg i.p., 0-10 min",71.17
same,Mean time spent in the central squares per time interval,"naive rats (Wistar) [1]; 5 mg/kg i.p., 0-120 min",1563.6 s
same,Number of displacements,"naive rats (Wistar) [1]; 5 mg/kg i.p., 0-120 min",1600
same,Vertical activity,"naive rats (Wistar) [1]; 5 mg/kg i.p., 0-120 min",136.00
same,Mean time spent in the central squares per time interval,"naive rats (Wistar) [1]; 5 mg/kg i.p., 5-10 min",88.0 s
same,Vertical activity,"naive rats (Wistar) [1]; 5 mg/kg i.p., 5-10 min",30.50
same,Mean time spent in the central squares per time interval,naive rats (Wistar) [1]; [4],116.8 s
same,Vertical activity,"naive rats (Wistar) [1]; 10 mg/kg i.p., 0-5 min",52.33
same,Mean time spent in the central squares per time interval,"naive rats (Wistar) [1]; 10 mg/kg i.p., 0-10 min",226.7 s
same,Vertical activity,"naive rats (Wistar) [1]; 10 mg/kg i.p., 0-10 min",86.42
same,Mean time spent in the central squares per time interval,"naive rats (Wistar) [1]; 10 mg/kg i.p., 0-120 min",1803.8 s
same,Number of displacements,"naive rats (Wistar) [1]; 10 mg/kg i.p., 0-120 min",1800
same,Vertical activity,"naive rats (Wistar) [1]; 10 mg/kg i.p., 0-120 min",173.75
same,Mean time spent in the central squares per time interval,"naive rats (Wistar) [1]; 10 mg/kg i.p., 5-10 min",109.9 s
same,Vertical activity,"naive rats (Wistar) [1]; 10 mg/kg i.p., 5-10 min",34.08
same,Mean time spent in the central squares per time interval,"naive rats (Wistar) [1]; 20 mg/kg i.p., 30 min before test, 0-5 min",129.8 s
same,Vertical activity,"naive rats (Wistar) [1]; 20 mg/kg i.p., 0-5 min",47.33
same,Mean time spent in the central squares per time interval,"naive rats (Wistar) [1]; 20 mg/kg i.p., 0-10 min",235.7 s
same,Vertical activity,"naive rats (Wistar) [1]; 20 mg/kg i.p., 0-10 min",66.58
same,Mean time spent in the central squares per time interval,"naive rats (Wistar) [1]; 20 mg/kg i.p., 0-120 min",1692.8 s
same,Number of displacements,"naive rats (Wistar) [1]; 20 mg/kg i.p., 0-120 min",2100
same,Vertical activity,"naive rats (Wistar) [1]; 20 mg/kg i.p., 0-120 min",208.92
same,Mean time spent in the central squares per time interval,"naive rats (Wistar) [1]; 20 mg/kg i.p., 5-10 min",105.9 s
same,Vertical activity,"naive rats (Wistar) [1]; 20 mg/kg i.p., 5-10 min",19.25
same,drowsiness effect / overall activity level of the animals,naive rats (Wistar) [1],does not generate the drowsiness effect
same,Percentage of time spent in the area closest to the light source,"naive rats (Wistar) [3]; 5 mg/kg i.p., Dark 1 (Habituation)",32%
same,Percentage of time spent in the area closest to the light source,"naive rats (Wistar) [3]; 5 mg/kg i.p., Dark 2 (Relief)",30%
same,Percentage of time spent in the area closest to the light source,"naive rats (Wistar) [3]; 5 mg/kg i.p., Light 600 lux (Stress)",22%
same,anxiety effect (avoidance of the most strongly illuminated area),naive rats (Wistar) [3]; 10 mg/kg dose,completely eliminated
same,Percentage of time spent in the area closest to the light source,"naive rats (Wistar) [3]; 10 mg/kg i.p., Dark 1 (Habituation)",29%
same,Percentage of time spent in the area closest to the light source,"naive rats (Wistar) [3]; 10 mg/kg i.p., Dark 2 (Relief)",34%
same,Percentage of time spent in the area closest to the light source,"naive rats (Wistar) [3]; 10 mg/kg i.p., Light 600 lux (Stress)",30%
same,Percentage of time spent in the area closest to the light source,"naive rats (Wistar) [3]; 20 mg/kg i.p., Dark 1 (Habituation)",39%
same,Percentage of time spent in the area closest to the light source,"naive rats (Wistar) [3]; 20 mg/kg i.p., Dark 2 (Relief)",29%
same,Percentage of time spent in the area closest to the light source,"naive rats (Wistar) [3]; 20 mg/kg i.p., Light 600 lux (Stress)",21%
same,"Percentage of pre-pulse inhibition, Average",naive rats (Wistar) [2]; 5 mg/kg i.p.,42%
same,Percentage of pre-pulse inhibition as a function of the intensity of the first pulse,"naive rats (Wistar) [2]; 5 mg/kg i.p., first pulse 72 dB",24%
same,Percentage of pre-pulse inhibition as a function of the intensity of the first pulse,"naive rats (Wistar) [2]; 5 mg/kg i.p., first pulse 76 dB",37%
same,Percentage of pre-pulse inhibition as a function of the intensity of the first pulse,"naive rats (Wistar) [2]; 5 mg/kg i.p., first pulse 80 dB",47%
same,Percentage of pre-pulse inhibition as a function of the intensity of the first pulse,"naive rats (Wistar) [2]; 5 mg/kg i.p., first pulse 84 dB",60%
same,"Percentage of pre-pulse inhibition, Average",naive rats (Wistar) [2]; 10 mg/kg i.p.,45%
same,Percentage of pre-pulse inhibition as a function of the intensity of the first pulse,naive rats (Wistar) [2]; [5],27%
same,Percentage of pre-pulse inhibition as a function of the intensity of the first pulse,naive rats (Wistar) [2]; [6],39%
same,Percentage of pre-pulse inhibition as a function of the intensity of the first pulse,naive rats (Wistar) [2]; [7],51%
same,Percentage of pre-pulse inhibition as a function of the intensity of the first pulse,naive rats (Wistar) [2]; [8],64%
same,"Percentage of pre-pulse inhibition, Average",naive rats (Wistar) [2]; 20 mg/kg i.p.,48%
same,Percentage of pre-pulse inhibition as a function of the intensity of the first pulse,"naive rats (Wistar) [2]; 20 mg/kg i.p., first pulse 72 dB",31%
same,Percentage of pre-pulse inhibition as a function of the intensity of the first pulse,"naive rats (Wistar) [2]; 20 mg/kg i.p., first pulse 76 dB",46%
same,Percentage of pre-pulse inhibition as a function of the intensity of the first pulse,"naive rats (Wistar) [2]; 20 mg/kg i.p., first pulse 80 dB",54%
same,Percentage of pre-pulse inhibition as a function of the intensity of the first pulse,"naive rats (Wistar) [2]; 20 mg/kg i.p., first pulse 84 dB",62%
same,effect on PPI (schizophrenia-inducing effect),naive rats (Wistar) [2],induces no effect
same,affinity with the NMDA receptor (measured in Ki),NMDA receptor,same order of magnitude as that of memantine
